Read-outs that look alike come from different tables or passages of the source.
Key:
Hh-signalling cascade = test: Inhibition of SHh-induced alkaline phosphatase in C3H10T1/2 cells (Hh-signalling cascade inhibition); assay type: cell-based; settings: Mus musculus, C3H 10T1/2, half maximal inhibition of SHh (0.3 μg/ml) stimulation of cell alkaline phosphatase
Procedure, shortened: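 C3H10T1/2 cells preincubated 30 min with compound (screen at 10 μM; IC50 from triplicate dilution series), then stimulated with 0.3 μg/ml recombinant SHh for 3 days at 37 °C. Alkaline phosphatase measured by CSPD luminescence in 0.2% Triton-X100 lysates; IC50 = half-maximal inhibition of SHh-induced activity.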

Smo receptors = biological target: T1, Smo receptors (Homo sapiens, UniProt Q99835); test: Displacement of bodipy-cyclopamine from Smo receptors in Smo-HEK cells; assay type: binding; settings: half-maximal displacement of bodipy-cyclopamine
T1 construct: expressed in transfected cells; host or cells: HEK cells (Smo-HEK)
Protocol: Binding parameters to Smo receptors for some of compounds of the general formulas I-VIII are presented in table 11 as the values of half-maximal displacement of cyclopamine labelled with fluorescent dye (bodipy-cyclopamine). The tests were carried out for Smo-HEK cells, comprising artificially expressed protein Smo.

[1] = Pharmacokinetic investigation in mice (PO and IP); assay type: in vivo, mice of BALB/c line; settings: BALB/c, mouse, plasma; for half-life: read-out: T½
Protocol: Pharmacokinetic investigations were carried out on mice of BALB/c line. All animals were divided into three groups in a random manner: two experimental groups were used for pharmacokinetic analyses at peroral (PO) and intraperitoneal (IP) ways of substance introduction in various doses, and the control group for getting intact blood plasma.
Blood samples were taken by decapitation of animals before introduction of medicament (control samples), and by decapitation in 5, 15, 30, 60, 120 and 240 minutes after introduction of medicament. Three mice were used for each time interval point.
Analysis of samples comprising compounds of the general formulas I-VIII was carried out by Chromato-Mass-Spectrometry method. The data were analysed by means of software package WinNonLin (Pharsight, CIIIA).
Oral bioavailability % F of compounds of the general formulas I-VIII was calculated on the basis of experimental results according to the following equation: % F=[AUC0→t,(PO)/AUC0→t,(IP)]×100%.

[2] = Maximum tolerated dose, intraperitoneal once daily for 5 days; settings: mouse, in vivo, ip, male SHK mice
Protocol: Maximum tolerated dose of compounds was determined in tests on male mice of SHK line by intraperitoneal once daily introduction of the compounds in doses from 30 to 300 mg/kg during 5 days. 8 Mice were used in each group. Weight of mice and also animals' mortality were registered. […] According to the classification of chemical compounds toxicity the investigated compounds may be referred to low-toxic substances.

[3] = Pharmacokinetic investigation in mice (PO and IP); assay type: in vivo, mice of BALB/c line; settings: BALB/c, mouse, plasma, read-out: % F (PO/IV)

T1 sequence (Q99835 28-787): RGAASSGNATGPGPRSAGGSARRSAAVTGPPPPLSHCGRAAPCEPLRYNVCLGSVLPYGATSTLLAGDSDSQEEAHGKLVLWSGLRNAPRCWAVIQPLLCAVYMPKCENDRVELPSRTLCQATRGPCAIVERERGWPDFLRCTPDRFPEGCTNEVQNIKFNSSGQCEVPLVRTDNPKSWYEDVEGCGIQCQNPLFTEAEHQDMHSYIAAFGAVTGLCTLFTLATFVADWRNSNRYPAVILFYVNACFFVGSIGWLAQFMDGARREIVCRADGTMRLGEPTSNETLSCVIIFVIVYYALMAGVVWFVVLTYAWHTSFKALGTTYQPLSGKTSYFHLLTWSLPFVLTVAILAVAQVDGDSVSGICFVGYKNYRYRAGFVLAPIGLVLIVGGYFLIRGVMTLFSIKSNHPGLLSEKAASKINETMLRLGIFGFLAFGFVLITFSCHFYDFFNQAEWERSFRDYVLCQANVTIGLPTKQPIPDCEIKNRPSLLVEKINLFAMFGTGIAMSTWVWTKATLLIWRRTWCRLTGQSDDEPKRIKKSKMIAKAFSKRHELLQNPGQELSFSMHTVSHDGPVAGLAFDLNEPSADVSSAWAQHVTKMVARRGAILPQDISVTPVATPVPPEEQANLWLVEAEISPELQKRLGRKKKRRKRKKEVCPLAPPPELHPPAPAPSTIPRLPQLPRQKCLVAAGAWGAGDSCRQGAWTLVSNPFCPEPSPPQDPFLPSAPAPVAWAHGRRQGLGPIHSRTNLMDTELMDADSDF

Row | SMILES | IC50 (Hh-signalling cascade) | melting point | also measured
1 | Cc1nn(CC(=O)N2CCN(c3cccc(Cl)c3)CC2)c(=O)c2nn(-c3ccccc3)c(C)c12 [I-1002, 2-phenyl-3,4-dimethyl-6-{2-[4-(3-chlorophenyl)piperazin-1-yl]-2-oxoethyl}-2,6-dihydro-7H-pyrazolo[3,4-d]pyridazin-7-one] | < 500 nM | 257 to 259 °C | –
2 | Cc1nn(CC(=O)N2CCN(c3ccccc3)CC2)c(=O)c2nn(-c3ccccc3)c(C)c12 [I-1003, 2-Phenyl-3,4-dimethyl-6-{2-[4-phenylpiperazin-1-yl]-2-oxoethyl}-2,6-dihydro-7H-pyrazolo[3,4-c]pyridazin-7-one] | < 500 nM | 252 to 254 °C | –
3 | Cc1cccc(N2CCN(C(=O)Cn3nc(C)c4c(C)n(-c5ccccc5)nc4c3=O)CC2)c1C [I-1004, 2-Phenyl-3,4-dimethyl-6-{2-[4-(2,3-dimethylphenyl)piperazin-1-yl]-2-oxoethyl}-2,6-dihydro-7H-pyrazolo[3,4-d]pyridazin-7-one] | < 500 nM | 249 to 251 °C | –
4 | Cc1ccc(C)c(N2CCN(C(=O)Cn3nc(C)c4c(C)n(-c5ccccc5)nc4c3=O)CC2)c1 [I-1005, 2-Phenyl-3,4-dimethyl-6-{2-[4-(2,5-dimethylphenyl)piperazin-1-yl]-2-oxoethyl}-2,6-dihydro-7H-pyrazolo[3,4-d]pyridazin-7-one] | < 500 nM | 232 to 234 °C | –
5 | Cc1nn(CC(=O)N2CCN(c3ccc(F)cc3)CC2)c(=O)c2nn(-c3ccccc3)c(C)c12 [I-1006, 2-Phenyl-3,4-dimethyl-6-{2-[4-(4-fluorophenyl)piperazin-1-yl]-2-oxoethyl}-2,6-dihydro-7H-pyrazolo[3,4-d]pyridazin-7-one] | < 500 nM | 257 to 259 °C | –
6 | Cc1nn(CC(=O)N2CCN(c3ccccc3F)CC2)c(=O)c2nn(-c3ccccc3)c(C)c12 [I-1007, 2-Phenyl-3,4-dimethyl-6-{2-[4-(2-fluorophenyl)piperazin-1-yl]-2-oxoethyl}-2,6-dihydro-7H-pyrazolo[3,4-d]pyridazin-7-one] | < 500 nM | 240 to 242 °C | –
7 | Cc1nn(C(C)C(=O)N2CCN(c3ccccc3)CC2)c(=O)c2nn(-c3ccccc3)c(C)c12 (centres unmarked) [I-1008, 2 Phenyl-3,4-dimethyl-6-[1-methyl-2-(4-phenylpiperazin-1-yl)-2-oxoethyl]-2,6-dihydro-7H-pyrazolo[3,4-d]pyridazin-7-one] | < 500 nM | 193 to 195 °C | –
8 | Cc1nn(C(C)C(=O)N2CCN(c3cccc(Cl)c3)CC2)c(=O)c2nn(-c3ccccc3)c(C)c12 (centres unmarked) [I-1009, 2-Phenyl-3,4-dimethyl-6-{1-methyl-2-[4-(3-chlorophenyl)piperazin-1-yl]-2-oxoethyl}-2,6-dihydro-7H-pyrazolo[3,4-d]pyridazin-7-one] | < 500 nM | 194 to 196 °C | –
9 | Cc1nn(C(C)C(=O)N2CCN(C3CCCCC3)CC2)c(=O)c2nn(-c3ccccc3)c(C)c12 (centres unmarked) [I-1010, 2-Phenyl-3,4-dimethyl-6-{1-methyl-2-[4-cyclohexylpiperazin-1-yl]-2-oxoethyl}-2,6-dihydro-7H-pyrazolo[3,4-d]pyridazin-7-one] | < 500 nM | 132 to 135 °C | –
10 | Cc1cccc(N2CCN(C(=O)C(C)n3nc(C)c4c(C)n(-c5ccccc5)nc4c3=O)CC2)c1C (centres unmarked) [I-1011, 2-Phenyl-3,4-dimethyl-6-{1-methyl-2-[4-(2,3-dimethylphenyl)piperazin-1-yl]-2-oxoethyl}-2,6-dihydro-7H-pyrazolo[3,4-d]pyridazin-7-one] | < 500 nM | 136 to 138 °C | –
11 | Cc1nn(C(C)C(=O)N2CCN(Cc3ccccc3)CC2)c(=O)c2nn(-c3ccccc3)c(C)c12 (centres unmarked) [I-1012, 2-Phenyl-3,4-dimethyl-6-{1-methyl-2-[4-benzylpiperazin-1-yl]-2-oxoethyl}-2,6-dihydro-7H-pyrazolo[3,4-d]pyridazin-7-one] | < 500 nM | 152 to 154 °C | –
12 | CN1CCN(C(=O)C2CCN(C(=O)c3cc4sccc4n3Cc3ccc(Cl)cc3)CC2)CC1 [V-1017, [4-(4-Chlorobenzyl)-4H-thieno[3,2-b]pyrrol-5-yl][4-(4-methylpiperazine-1-carbonyl)-piperidin-1-yl]methanone] | – | – | IC50 (Smo receptors): 40 nM; Cmax ([1]; IP, 5 mg/Kg): 289 ng/mL; half-life ([1]; IP, 5 mg/Kg): 1.13 h; Cmax ([1]; PO, 20 mg/Kg): 758 ng/mL; half-life ([1]; PO, 20 mg/Kg): 2.28 h; MTD at 5 days [2]: > 200 mg/kg; bioavailability [3]: 63%
13 | O=C(c1cc2sccc2n1Cc1ccc(Cl)cc1)N1CCC(C(=O)N2CCCCCC2)CC1 [V-1043, 1-[4-(4-Chlorobenzyl)-4H-thieno[3,2-b]pyrrole-5-carbonyl]piperidine-4-carboxylic acid hexamethylene amide] | < 5000 nM | – | IC50 (Smo receptors): 69 nM; Cmax ([1]; IP, 5 mg/Kg): 167 ng/mL; half-life ([1]; IP, 5 mg/Kg): 1.07 h; Cmax ([1]; PO, 5 mg/Kg): 71 ng/mL; MTD at 5 days [2]: > 200 mg/kg; bioavailability [3]: 3%
14 | CN1CCc2c(sc(NC(=O)C3CCCCC3)c2-c2nc3ccccc3s2)C1.Cl [VIII-1001, Cyclohexanecarboxylic acid (3-benzo[d]thiazol-2-yl-6-methyl-4,5,6,7-tetrahydrothieno[2,3-c]pyridin-2-yl)amide] | < 500 nM | – | Cmax ([1]; IP, 100 mg/Kg): 45 ng/mL; half-life ([1]; IP, 100 mg/Kg): 4.9 h; MTD at 5 days [2]: > 100 mg/kg

The next lines start with results.

Row | IC50 (Hh-signalling cascade) | melting point | SMILES | also measured
15 | < 500 nM | 120 to 122 °C | O=C(c1cc2sccc2n1Cc1ccc(F)cc1)N1CCC(C(=O)N2CCOCC2)CC1 [V-1001, [4-(4-Fluorobenzyl)-4H-thieno[3,2-b]pyrrol-5-yl][4-(morpholine-4-carbonyl)piperidin-1-yl]methanone] | –
16 | < 500 nM | 203 to 205 °C | Cc1cc(C)cc(NC(=O)C2CCN(C(=O)c3cc4sccc4n3Cc3ccc(F)cc3)CC2)c1 [V-1002, 1-[4-(4-Fluorobenzyl)-4H-thieno[3,2-b]pyrrole-5-carbonyl]piperidine-4-carboxylic acid (3,5-dimethylphenyl)amide] | –
17 | < 500 nM | 203 to 205 °C | CCOc1ccc(NC(=O)c2ccnc(N3CCC(C(=O)NCCCc4ccccc4)CC3)c2)cc1 [VI-1001, 3,4,5,6-Tetrahydro-2H-[1,2]bipyridinyl-4,4′-carboxylic acid 4′-[(4-ethoxyphenyl)amide] 4-[(3-phenylpropyl)amide]] | –
18 | < 5000 nM | 235 to 237 °C | CCOc1ccc(NC(=O)c2ccnc(N3CCC(C(=O)Nc4ccc(C)c(C)c4)CC3)c2)cc1 [VI-1002, 3,4,5,6-Tetrahydro-2H-[1,2′]bipyridinyl-4,4′-carboxylic acid 4-[(3,4-dimethylphenyl)amide] 4′-[(4-ethoxyphenyl)amide]] | –
19 | < 5000 nM | 250 to 252 °C | CCOc1ccc(NC(=O)c2ccnc(N3CCC(C(=O)Nc4cc(C)cc(C)c4)CC3)c2)cc1 [VI-1003, 3,4,5,6-Tetrahydro-2H-[1,2′]bipyridinyl-4,4′-carboxylic acid 4-[(3,5-dimethylphenyl)amide] 4′-[(4-ethoxyphenyl)amide]] | –
20 | < 5000 nM | 200 to 202 °C | CCOc1ccc(NC(=O)c2ccnc(N3CCC(C(=O)Nc4cccc(SC)c4)CC3)c2)cc1 [VI-1004] | –
21 | < 5000 nM | 243 to 245 °C | CCOc1ccc(NC(=O)c2ccnc(N3CCC(C(=O)Nc4ccc(C(C)C)cc4)CC3)c2)cc1 [VI-1005, 3,4,5,6-Tetrahydro-2H-[1,2′]bipyridinyl-4,4′-carboxylic acid 4′-[(4-ethoxyphenyl)amide] 4-[(4-isopropylphenyl)amide]] | –
22 | < 5000 nM | 182 to 184 °C | CCOc1ccc(NC(=O)c2ccnc(N3CCC(C(=O)Nc4ccccc4OC)CC3)c2)cc1 [VI-1006, 3,4,5,6-Tetrahydro-2H-[1,2′]bipyridinyl-4,4′-carboxylic acid 4′-[(4-ethoxyphenyl)amide] 4-[(2-methoxyphenyl)amide]] | –
